Where two headings read alike, the source gives them in different places.
How the values were obtained:
[1] = system: VSV-G-pseudotype virus (pVSV-G); experiment: microbe, parasite or virus in culture; format: cell-based; conditions: Vesicular stomatitis virus, read-out: %inh@10 µM (pVSV-G)
[2] = system: EBOV-GP-Pseudotype Virus (pEBOV)
[3] = system: wild-type Zaire EBOV Mayinga 1976 strain (EBOV May)
[4] = system: EBOV-GP-Pseudotype Virus (pEBOV); conditions: cited from earlier work
[5] = system: EBOV-GP-Pseudotype Virus (pEBOV); experiment: microbe, parasite or virus in culture; conditions: Zaire ebolavirus, 48 h; for EC50: HeLa, read-out: EC50 (μM) (pEBOV)
[6] = system: wild-type Zaire EBOV Mayinga 1976 strain (EBOV May); experiment: microbe, parasite or virus in culture; conditions: Zaire ebolavirus, Vero C1008, 72 h, read-out: EC50 (μM), replicative EBOV
in vitro [7] = conditions: human
in vitro [8] = conditions: chlorocebus sabaeus
EBOV-GPcl/NPC1-domain C = EBOV-GPcl/NPC1-domain C (Zaire ebolavirus, UniProt Q05320); format: binding, Homo sapiens
Chain of EBOV-GPcl/NPC1-domain C (Q05320 33-190 limits assumed): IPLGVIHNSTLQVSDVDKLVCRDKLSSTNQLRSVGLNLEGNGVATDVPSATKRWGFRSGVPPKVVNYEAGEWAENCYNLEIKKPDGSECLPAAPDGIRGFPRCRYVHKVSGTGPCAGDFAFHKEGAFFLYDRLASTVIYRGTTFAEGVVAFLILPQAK
Chain of EBOV-GPcl/NPC1-domain C (Q05320 502-676 limits assumed): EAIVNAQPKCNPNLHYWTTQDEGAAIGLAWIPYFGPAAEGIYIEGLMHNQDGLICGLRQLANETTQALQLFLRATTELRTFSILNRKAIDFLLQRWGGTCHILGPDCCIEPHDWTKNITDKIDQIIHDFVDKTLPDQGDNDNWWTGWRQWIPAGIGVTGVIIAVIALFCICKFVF

[9] = pH 7.4
[10] = CD-1, mouse, pH 7.4
hERG potassium channel [11] = target: T1, hERG potassium channel (Homo sapiens, UniProt Q12809)
T1 sequence (Q12809 whole entry): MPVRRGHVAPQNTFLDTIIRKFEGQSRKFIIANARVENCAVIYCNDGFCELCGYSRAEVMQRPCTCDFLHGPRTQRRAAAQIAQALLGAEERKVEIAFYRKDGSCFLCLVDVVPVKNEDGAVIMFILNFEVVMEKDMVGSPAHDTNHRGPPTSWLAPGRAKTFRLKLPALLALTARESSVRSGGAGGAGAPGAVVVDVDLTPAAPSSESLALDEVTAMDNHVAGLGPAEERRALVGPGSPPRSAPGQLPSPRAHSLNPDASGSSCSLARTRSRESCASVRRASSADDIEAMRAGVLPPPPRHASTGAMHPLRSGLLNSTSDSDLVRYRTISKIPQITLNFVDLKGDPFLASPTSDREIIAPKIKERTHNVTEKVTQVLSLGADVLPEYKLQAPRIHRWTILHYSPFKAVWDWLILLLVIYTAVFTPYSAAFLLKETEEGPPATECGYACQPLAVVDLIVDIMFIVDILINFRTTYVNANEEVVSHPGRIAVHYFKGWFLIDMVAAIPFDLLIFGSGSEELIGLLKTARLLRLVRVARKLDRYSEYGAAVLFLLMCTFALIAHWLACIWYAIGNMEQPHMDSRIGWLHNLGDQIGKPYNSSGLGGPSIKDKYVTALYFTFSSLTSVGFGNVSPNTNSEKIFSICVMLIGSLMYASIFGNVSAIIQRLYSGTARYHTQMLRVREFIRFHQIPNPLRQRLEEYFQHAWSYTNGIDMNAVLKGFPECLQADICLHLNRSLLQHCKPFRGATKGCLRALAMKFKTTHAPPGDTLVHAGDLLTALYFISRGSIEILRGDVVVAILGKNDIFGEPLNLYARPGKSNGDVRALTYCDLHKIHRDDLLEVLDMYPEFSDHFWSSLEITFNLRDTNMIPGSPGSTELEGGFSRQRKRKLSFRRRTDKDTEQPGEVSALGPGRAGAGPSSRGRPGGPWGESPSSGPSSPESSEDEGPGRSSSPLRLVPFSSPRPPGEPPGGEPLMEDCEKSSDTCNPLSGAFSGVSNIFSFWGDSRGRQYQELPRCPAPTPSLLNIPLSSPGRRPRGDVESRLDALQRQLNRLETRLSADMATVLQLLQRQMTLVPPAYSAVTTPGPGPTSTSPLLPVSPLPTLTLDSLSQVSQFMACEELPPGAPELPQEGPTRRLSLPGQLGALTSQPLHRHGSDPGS

[12] = male, BALB/c, mouse, in vivo
in vivo = conditions: male, BALB/c, mouse; for Cmax at 24 h: Cmax (ng/mL)
in vitro [13] = conditions: human, microsomes, pH 7.4
in vitro [14] = conditions: CD-1, mouse, microsomes, pH 7.4
hERG potassium channel [15] = target: T1, hERG potassium channel; experiment: in vitro; conditions: pH 7.2
[16] = ip, 10 mg/kg, Brain-Kp (AUClast)
[17] = po, 50 mg/kg, Brain-Kp (AUClast)

Row | SMILES | inhibition at 10 µM [1] [%] | SI (pEBOV) (CC50/EC50) [2] | SI (CC50/EC50), replicative EBOV [3] | EC50 [5] [µM] | EC50 [6] [µM] | CC50 at 24 h (in vitro [7]) [µM] | CC50 at 24 h (in vitro [8]) [µM] | also measured
1 | O=C(CNCCC1CCN(Cc2ccccc2)CC1)Nn1c2ccccc2c2ccccc21 [Compound 1] | 25 | 19 | 11.0 | 0.37 | 1.5 |  |  | IC50 [4]: 0.37 µM
2 | O=C(CCNCCC1CCN(Cc2ccccc2)CC1)Nn1c2ccccc2c2ccccc21 [Compound 2] | 10 | 2.87 | 9.1 | 0.16 | 0.52 | 0.46 | 4.75 | 
3 | O=C(CNCCC1CCN(Cc2ccccc2)CC1)NC1c2ccccc2-c2ccccc21 [Compound 9, 2-((2-(1-Benzylpiperidin-4-yl)ethyl)amino)-N-(9H-fluoren-9-yl)acetamide] | -10 | 93 | 134.6 | 1.7 | 0.25 | 159 | 33.6 | 
4 | O=C(CNCCC1CCN(Cc2ccccc2)CC1)NN(c1ccccc1)c1ccccc1 [Compound 10, 2-((2-(1-Benzylpiperidin-4-yl)ethyl)amino)-N′,N′-diphenylacetohydrazide] | 2 | 15 | 16.9 | 3.13 | 1.9 | 48 | 32.2 | 
5 | O=C(CCNCCC1CCN(Cc2ccccc2)CC1)NN(c1ccccc1)c1ccccc1 [Compound 11, 3-((2-(1-Benzylpiperidin-4-yl)ethyl)amino)-N′,N′-diphenylpropanehydrazide] | 50 |  |  | 0.05 | 0.3 | 6 | 9.47 | loss of binding between EBOV-GPcl/NPC1-domain C (EBOV-GPcl/NPC1-domain C): does it to a lesser extent; CLint (mL/min/mg protein), human liver microsomes [9]: 13 ± 1 mL/min/mg protein; CLint (mL/min/mg protein), mouse liver microsomes [10]: 96 ± 23 mL/min/mg protein; cardiotoxicity classification from hERG IC50 (hERG potassium channel [11]): not cardiotoxic; estimated concentration on plasma [12]: 0.62 µM; AUClast ([12]; po, 50 mg/kg, 24 h): 3354.96 ng·h/mL; Cmax ([12]; po, 50 mg/kg, 24 h): 201.45 ng/mL; Kp at 24 h (in vivo; [16]): 2.04; Kp at 24 h (in vivo; ip, 10 mg/kg, Brain-Kp (Cmax)): 0.18; half-life at 24 h (in vivo; po, 50 mg/kg): 352 min; AUC(0-t) at 24 h (in vivo; po, 50 mg/kg, AUClast (h × ng/mL)): 2020 ng·h/mL; Kp at 24 h (in vivo; [17]): 1.66; Kp at 24 h (in vivo; po, 50 mg/kg, Brain-Kp (Cmax)): 0.72; Cmax at 24 h (in vivo; po, 50 mg/kg): 278 ng/mL; half-life at 1 h, 10 µM (in vitro [13]): 45 ± 3 min; half-life at 1 h, 10 µM (in vitro [14]): 26 ± 6 min; IC50 (hERG potassium channel [15]): 16.4 µM
6 | O=C(CNCCN1CCN(Cc2ccccc2)CC1)NN(c1ccccc1)c1ccccc1 [Compound 12, 2-((2-(4-Benzylpiperazin-1-yl)ethyl)amino)-N′,N′-diphenylacetohydrazide] | -29 | 63 | 12.9 | 2.17 | 7.8 | 108 | 101 | 
7 | O=C(CCNCCN1CCN(Cc2ccccc2)CC1)NN(c1ccccc1)c1ccccc1 [Compound 13, 3-((2-(4-Benzylpiperazin-1-yl)ethyl)amino)-N′,N′-diphenylpropanehydrazide] | 42 |  |  | 0.58 | 2.7 | 159 | 35.5 | loss of binding between EBOV-GPcl/NPC1-domain C (EBOV-GPcl/NPC1-domain C): interferes with the NPC1/EBOV-GPcl interaction similarly than our hit 1 (SC816); CLint (mL/min/mg protein), human liver microsomes [9]: 10.8 ± 0.3 mL/min/mg protein; CLint (mL/min/mg protein), mouse liver microsomes [10]: 170 ± 20 mL/min/mg protein; cardiotoxicity classification from hERG IC50 (hERG potassium channel [11]): not cardiotoxic; Cmax ([12]; ip, 10 mg/kg, 24 h): 170.55 ng/mL; half-life at 24 h (in vivo; ip, 10 mg/kg): 46.2 min; Kp at 24 h (in vivo; [16]): 46.4; Kp at 24 h (in vivo; ip, 10 mg/kg, Brain-Kp (Cmax)): 0.99; Cmax at 24 h (in vivo; ip, 10 mg/kg): 172 ng/mL; half-life at 24 h (in vivo; po, 50 mg/kg): 262 min; Kp at 24 h (in vivo; [17]): 46.5; Kp at 24 h (in vivo; po, 50 mg/kg, Brain-Kp (Cmax)): 3.65; half-life at 1 h, 10 µM (in vitro [13]): 53 ± 2 min; half-life at 1 h, 10 µM (in vitro [14]): 14 ± 2 min; IC50 (hERG potassium channel [15]): 14.9 µM
8 | CN1CCN(CCC(=O)NN(c2ccccc2)c2ccccc2)CC1 [Compound 14, 3-(4-Methylpiperazin-1-yl)-N′,N′-diphenylpropanehydrazide] | 2 | 358 |  | 0.27 | > 100 |  |  | CC50 (in vitro [7]): > 100 µM; CC50 (in vitro [8]): > 100 µM
9 | CN1CCN(CC(=O)NN(Cc2ccccc2)c2ccccc2)CC1 [Compound 33] |  |  |  |  | > 100 |  |  | antiviral activity against pEBOV, in words [2]: inactive; CC50 (in vitro [7]): > 100 µM; CC50 (in vitro [8]): > 100 µM; inhibition at 10 µM ([5]; M-HeLa, read-out: %inh@10 μM (pEBOV)): 13%
